Experimental data taken from ChEMBL document CHEMBL1129314, “Synthesis of novel Se-substituted selenocysteine derivatives as potential kidney selective prodrugs of biologically active selenol compounds: evaluation of kinetics of beta-elimination reactions in rat renal cytosol” (J Med Chem, 1996).

How the values were obtained:
[1] = molecular target: Kynurenine--oxoglutarate transaminase 1 (Rattus norvegicus) (UniProt Q08415); assay: Specific activity against beta-elimination reaction by rat renal cytosolic beta-lyase after incubation with 0.2 mg of protein/mL for 10 min at 37 degree C using 1 mM substrate conc.
[2] = molecular target: Kynurenine--oxoglutarate transaminase 1 (Rattus norvegicus) (UniProt Q08415); assay: Ratio of Vmax and Km for elimination of conjugates by rat renal cytosol

Chain of Kynurenine--oxoglutarate transaminase 1 (Rattus norvegicus) (Q08415 whole entry, looked up): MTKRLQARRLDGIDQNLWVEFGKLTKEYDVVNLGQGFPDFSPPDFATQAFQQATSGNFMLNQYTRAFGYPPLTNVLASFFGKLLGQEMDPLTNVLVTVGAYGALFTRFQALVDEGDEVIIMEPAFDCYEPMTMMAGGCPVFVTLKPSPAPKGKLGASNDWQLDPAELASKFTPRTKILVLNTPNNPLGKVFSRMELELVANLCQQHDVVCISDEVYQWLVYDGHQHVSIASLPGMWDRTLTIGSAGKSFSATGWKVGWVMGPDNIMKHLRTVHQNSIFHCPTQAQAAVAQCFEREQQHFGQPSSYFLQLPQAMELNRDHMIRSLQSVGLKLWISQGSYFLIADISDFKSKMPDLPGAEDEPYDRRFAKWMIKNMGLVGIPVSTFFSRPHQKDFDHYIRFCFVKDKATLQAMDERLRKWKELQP

| SMILES | Specific activity (nM min-1 mg-1) [1] | Vmax / Km (nM min-1 mg-1 mM-1) [2] |
| --- | --- | --- |
| CCC[Se]CC(N)C(=O)O (single isomer, unassigned) | 8 | 25.7 |
| N[C@@H](C[Se]Cc1ccccc1)C(=O)O | 9.8 | 70 |
| N[C@@H](C[Se]c1ccc(Cl)cc1)C(=O)O | 5.2 | 16.7 |
| N[C@@H](C[Se]Cc1ccc(Cl)cc1)C(=O)O | 11.6 | 68.4 |
| CC(C)[Se]C[C@H](N)C(=O)O | 14.9 | 66.9 |
| Cc1ccc([Se]CC(N)C(=O)O)cc1 (single isomer, unassigned) | 3.8 | 16.7 |
| Cc1ccc(C[Se]CC(N)C(=O)O)cc1 (single isomer, unassigned) | 13.1 | 70.2 |
| COc1ccc(CSC[C@H](N)C(=O)O)cc1 | 0.1 | – |
| CC[Se]C[C@H](N)C(=O)O | 11 | 21.8 |
| COc1ccc(C[Se]C[C@H](N)C(=O)O)cc1 | 10.2 | 44.9 |
| Cc1ccc([Se]C[C@H](N)C(=O)O)cc1 | 0.1 | – |
| N[C@@H](C[Se]Cc1ccc(Cl)c(Cl)c1)C(=O)O | 12.3 | 49 |
| CCSC[C@H](N)C(=O)O | 0.1 | – |
| COc1ccc([Se]C[C@H](N)C(=O)O)cc1 | 4.3 | 14 |
| N[C@@H](CSCc1ccccc1)C(=O)O | 0.2 | – |
| N[C@@H](CSc1ccccc1)C(=O)O | 0.2 | – |
| CCC[Se]C[C@H](N)C(=O)O | 3.3 | – |
| C[Se]C[C@H](N)C(=O)O | 4 | – |
| C[Se]CC(N)C(=O)O (single isomer, unassigned) | 7.1 | 13.2 |
| Cc1ccc(C[Se]C[C@H](N)C(=O)O)cc1 | 4.9 | – |
| N[C@@H](C[Se]c1ccccc1)C(=O)O | 13.8 | 44.2 |
| Cc1ccc(CSC[C@H](N)C(=O)O)cc1 | 0.3 | – |
| CCCC[Se]C[C@H](N)C(=O)O | 0.9 | 1.8 |
